Earlier results as cited in US20100021530A1, “ENHANCED TRANS-KERATIN DRUG DELIVERY” (Innovation Biomedical Devices, Inc., priority 2008, published 2010).

Tested on: Tinea unguium or onychomycosis (nail fungus)
Settings: topical, after a year of treatment, at best

In the case of `Cc1cc(C2CCCCC2)n(O)c(=O)c1` [ciclopirox], the cure rate is listed as “around 20%”.
